Source: patent publication EP1137632B1, “THIOUREA INHIBITORS OF HERPES VIRUSES” (Wyeth, priority 1998, dated 2000)
≈ marks a conversion by molar mass, not a printed value.

Legend:
VZV strain Ellen = assay: VZV antiviral (ELISA) assay in human foreskin fibroblast cells; format: cell-based, varicella-zoster virus; details: for IC50: Human alphaherpesvirus 3, read-out: IC50 (ug/ml) VZV
Description: VZV antiviral (ELISA) assay
For the generation of stock VZV to be used in the assay, VZV strain Ellen (ATCC #VR-1367) is used to infect human foreskin fibroblast (HFF) cells at low multiplicity (less than 0.1) and incubated overnight at 37°C in 5% CO2. After the overnight incubation, the mixture of uninfected and VZV-infected HFF infected cells are then harvested and added to each well of 96-well plates (3.5x10^4 cells in 100 µl DMEM supplemented with 2% FBS) which contain test compound or the reference standard drug control (in 100µl DMEM supplemented with 2% FBS per well). These cells are incubated for three days at 37°C in 5% CO2, then fixed for ELISA assay. The primary antibody is murine anti-VZV glycoprotein II monoclonal antibody (Applied Biosystems, Inc. #13-145-100) and the secondary antibody is goat anti-mouse IgG linked to β-galactosidase. Thus the extent of viral replication is determined by assessing β-galactosidase activity by quantifying the generation of the 4-methyl umbelliferone fluorescent cleavage product after addition of the methyl umbelliferyl-β-D-galactoside (Sigma #M1633) substrate on a microfluorimeter (365nm for excitation and 450nm for emission). Antiviral activity (IC50) of the test compound is determined by comparing the flourescence obtained in absence of compound to that obtained in the presence of compound.

HSV-1 = assay: HSV antiviral (ELISA) assay in Vero cells; format: cell-based, herpes simplex virus type 1; details: HSV-1 in Vero cells; for IC50: Human alphaherpesvirus 1, read-out: IC50 (ug/ml) HSV
Description: HSV antiviral (ELISA) assay
Vero cells (ATCC #CCL-81) are plated on 96-well tissue culture plates at 3.5x10^4 cells per 100µl tissue culture DMEM (Dulbecco's modified Eagle media) supplemented with 2% fetal bovine serum (FBS) in each well. After overnight incubation @ 37°C (in 5% CO2) and 30 minutes prior to infection with HSV-1 (multiplicity of infection equal to 0.006), cells are either untreated, or treated with test compound (multiple concentrations) or reference standard drug control. After approximately 24 hours post-infection incubation @ 37°C (in 5% CO2), cells are fixed for ELISA assay. The primary antibody is murine anti-HSV glycoprotein D monoclonal primary antibody and the secondary antibody is goat anti-mouse IgG linked to β-galactosidase. Thus the extent of viral replication is determined by assessing β-galactosidase activity by quantifying the generation of the 4-methyl umbelliferone fluorescent cleavage product after addition of the methyl umbelliferyl-β-D-galactoside (Sigma #M1633) substrate on a microfluorimeter (365nm for excitation and 450nm for emission). Antiviral activity (IC50) of the test compound is determined by comparing the flourescence obtained in absence of compound to that obtained in the presence of compound.

[1] = system: HCMV recombinant mutant virus; assay: microbe, parasite or virus in culture; format: cell-based, human cytomegalovirus; details: for IC50: Human betaherpesvirus 5, read-out: IC50 (ug/ml) HCMV
Excerpt: Microtiter plate assay. Ninety-six well plate cultures of human foreskin fibroblasts are infected in the presence of inhibitor compound with a HCMV recombinant mutant virus whose genome contains the prokaryotic beta-glucuronidase gene (Jefferson, R. A., S. M. Burgess, and D. Hirsh. 1986. Beta-glucuronidase from Escherichia coli as a gene fusion marker. Proc. Natl. Acad. Sci. USA 83:8447-8451) whose expression is controlled by a viral promoter. An example of such a virus is RV145 (Jones, T. R., V. P. Muzithras, and Y. Gluzman. 1991. Replacement mutagenesis of the human cytomegalovirus genome: US10 and US11 gene products are nonessential. J. Virol. 65:5860-5872). Since it is under the control of a viral promoter, beta-glucuronidase expression is an indirect indicator of growth and replication of HCMV in this assay. At 96 hours post-infection, the infected cell lysates are prepared (using 50mM sodium phosphate [pH7.0] containing 0.1 % Triton X-100 and 0.1% sarkosyl) and assayed for beta-glucuronidase activity using a substrate for the enzyme which when cleaved yields either a product which can be measured colorimetrically in a spectrophotometer or fluorescently in a microfluorimeter. Examples of such substrates are p-nitrophenyl-beta-D-glucuronide and methylumbelliferylglucuronide, respectively. The presence of an antiviral compound is indicated by the reduced expression of the HCMV genome resident beta-glucuronidase gene, compared to the absence of inhibitor. […] Data from this assay generated using varying amounts of inhibitor compound is also used to estimate the IC50 of an inhibitor compound.

Molecule	IC50 (VZV strain Ellen; VZV strain Ellen in HFF cells) [µg/mL]	IC50 (HSV-1) [µg/mL]	IC50 [1] [µg/mL]	other results
(5H,11H-Benzo[e]pyrrolo[1,2-a][1,4]diazepin-10-yl)-(2-chloro-4-imidazol-1-yl-phenyl)-methanone [Example 322]	–	–	–	% inhibition 10 ug/ml VZV (VZV strain Ellen; 10 ug/ml): 108%; IC50 (ug/ml) VZV (VZV strain Ellen; VZV strain Ellen in HFF cells): 8 µg/mL; IC50 (ug/ml) HSV (HSV-1): 4 µg/mL; IC50 (ug/ml) HCMV ([1]; HCMV, the table does not say which HCMV assay): 7 µg/mL
CC(NC(=S)Nc1ccc(NC(=O)c2ccccc2F)c(C#N)c1)c1ccc(F)cc1 (stereo not drawn) [Example 1040, N-(2-Cyano-4-{3-[1-(4-fluoro-phenyl)-ethyl]-thioureido}-phenyl)-2-fluoro-benzamide]	0.05 (≈ 0.115 µM)	> 10	> 10	–
COc1cc(NC(=O)c2ccccc2F)ccc1NC(=S)Nc1ccc(SC)c(Cl)c1 [Example 420, N-{4-[3-(3-Chloro-4-methylsulfanyl-phenyl)-thioureido]-3-methoxy-phenyl}-2-fluoro-benzamide]	> 10	0.2 (≈ 0.42 µM)	7 (≈ 14.7 µM)	inhibition at 10 µg/mL (VZV strain Ellen; Human alphaherpesvirus 3, Fibroblast, read-out: % inhibition 10 ug/ml VZV): 34%
CC(NC(=S)Nc1cc(Br)c(NC(=O)c2ccccc2F)c(Br)c1)c1ccc(F)cc1 (stereo not drawn) [Example 1033, N-(2,6-Dibromo-4-{3-[1-(4-fluoro-phenyl)-ethyl]-thioureido}-phenyl)-2-fluoro-benzamide]	0.039 (≈ 0.0685 µM)	7 (≈ 12.3 µM)	3.8 (≈ 6.68 µM)	–
CCOc1cc(NC(=S)NC(C)c2ccc(F)cc2)ccc1NC(=O)c1ccccc1F (stereo not drawn) [Example 1060, N-(2-Ethoxy-4-{3-[1-(4-fluoro-phenyl)-ethyl]-thioureido}-phenyl)-2-fluoro-benzamide]	0.26 (≈ 0.571 µM)	> 10	> 10	–
CC(NC(=S)Nc1ccc(NC(=O)c2ccccc2F)cc1C(F)(F)F)c1ccc(F)cc1 (stereo not drawn) [Example 1102, 2-Fluoro-N-(4-{3-[1-(4-fluoro-phenyl)-ethyl]-thioureido}-3-trifluoromethyl-phenyl)-benzamide]	> 7.5	–	5 (≈ 10.4 µM)	–
C[C@H](NC(=S)Nc1ccc(NC(=O)c2ccccc2F)c(C#N)c1)c1ccc(F)cc1 [Example 1108, N-{4-[({[(1S)-1-(4-fluorophenyl)ethyl]amino}carbothioyl)amino]-2-cyanophenyl)-2-fluorobenzamide]	0.03 (≈ 0.0687 µM)	–	> 10	–
C[C@@H](NC(=S)Nc1ccc(NC(=O)c2ccccc2F)c(C#N)c1)c1ccc(Br)cc1 [Example 1105, N-(4-{3-[(1R)-1-(4-Bromo-phenyl)-ethyl]-thioureido}-2-cyano-phenyl)-2-fluoro-benzamide]	> 7.5	–	1.1 (≈ 2.21 µM)	–
C[C@H](NC(=S)Nc1ccc(NC(=O)c2ccccc2F)c(C#N)c1)c1ccc(Cl)cc1 [Example 1109, N-{4-[({[(1S)-1-(4-chlorophenyl)ethyl]amino}carbothioyl)amino]-2-cyanophenyl}-2-fluorobenzamide]	0.07 (≈ 0.155 µM)	–	> 10	–
Cc1cc(NC(=O)c2ccccc2F)ccc1NC(=O)N[C@H](C)c1ccc(F)cc1 [Example 1107, 2-fluoro-N-{4-[({[(1R)-1-(4-fluorophenyl)ethyl]amino}carbonyl)amino]-3-methylphenyl}benzamide]	0.04 (≈ 0.0977 µM)	–	> 10	–
C[C@H](NC(=S)Nc1ccc(NC(=O)c2cc3ccccc3cn2)c(C(F)(F)F)c1)c1ccc(Br)cc1 [Example 1103, Isoquinline-3-carboxylic acid (4-{3-[(1S)-1-(4-bromo-phenyl)-ethyl]-thioureido}-2-trifluoromethyl-phenyl)-amide]	0.12 (≈ 0.209 µM)	–	5 (≈ 8.72 µM)	–
C[C@H](NC(=S)Nc1ccc(NC(=O)c2ccccc2F)c(C#N)c1)c1ccc(Br)cc1 [Example 1104, N-(4-{3-[(1S)-1-(4-Bromo-phenyl)-ethyl]-thioureido}-2-cyano-phenyl)-2-fluoro-benzamide]	0.09 (≈ 0.181 µM)	–	> 10	–
C[C@H](NC(=O)Nc1ccc(NC(=O)c2ccccc2F)c(C#N)c1)c1ccc(F)cc1 [Example 1106, N-{2-cyano-4-[({[(1S)-1-(4-fluorophenyl)ethyl]amino}carbonyl)amino]phenyl}-2-fluorobenzamide]	0.014 (≈ 0.0333 µM)	–	> 10	–
